The source of these data is ChEMBL document CHEMBL1201862, “PubChem BioAssay data set” (2004).

Some test systems named below: XF498; LXFL 529; BT-549; PC-3; MDA-MB-435; MDA-N; Hs-578T; 786-0.
Holding throughout (experiment): NCI-60 cell line screen, 48 h

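48-hour exposure; five concentrations; linearly interpolated endpoints. GI50 marks 50% less growth.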 The source made the active and inactive calls. Rule as the data show it: active = GI50 up to about 1.1 µM and inactive = higher. Bounds are passed on as bounds.

As to `c1ccc2cc3c(cc2c1)OP1(Oc2cccc4cccnc24)(O3)Oc2cc3ccccc3cc2O1`, the GI50 with XF498 was 3.71 µM (inactive).
`CC(C)N/C(N)=N/C#N`: the GI50 with XF498 and in the experiment with LXFL 529 was > 100 µM (inactive) each time.
Regarding `COC(=O)N1CC2C3C4CC(C(c5ccccc5)=C4c4ccccc4)C3C21` (centres undefined), the GI50 was 16 µM (inactive) in the experiment with BT-549, 10 µM (inactive) in the experiment with PC-3, 15.2 µM (inactive) in the experiment on MDA-MB-435 and 20.4 µM (inactive) in the experiment on MDA-N.
As for `CCOC(=O)C[n+]1ccc2c([nH]c3cc(OC)ccc32)c1C`, the GI50 with XF498 is 25.9 µM (inactive).
As for `CCC(/C=C/c1ccccc1)=N\Nc1ccc(Cl)c(Cl)c1`, the GI50 is 55.6 µM (inactive) with PC-3; 33.3 µM (inactive) in the experiment on MDA-MB-435; 55.3 µM (inactive) in the experiment with Hs-578T; 34.4 µM (inactive) in the experiment with 786-0; 34.3 µM (inactive) in the experiment with MDA-N.
`Cc1ccc(C(=O)N/N=C(\N=N\c2ccc([N+](=O)[O-])cc2)c2ccc(N(CCC#N)CCC#N)cc2C)cc1`: the GI50 in the experiment with BT-549 is 47.1 µM (inactive); in the experiment with PC-3, 50.1 µM (inactive); in the experiment with MDA-MB-435, 67.8 µM (inactive); in the experiment with Hs-578T it was 50.1 µM (inactive); with 786-0, 73.5 µM (inactive); in the experiment on MDA-N, 78.9 µM (inactive).
In the case of `Cc1ccc(OP2(=O)Oc3ccc4ccccc4c3CN2c2ccc(Cl)cc2)cc1C` (centres undefined), in the experiment with XF498, the GI50 was > 100 µM (inactive).
With `Cc1ccccc1NC(=O)C(=O)C(C1OC(=O)c2ccccc21)[N+](=O)[O-]` (centres undefined), the GI50 with XF498 and in the experiment on LXFL 529 was > 100 µM (inactive) throughout.
For the molecule `BrC1=CN2C[n+]3cc(Br)c4ccccc4c3N=C2c2ccccc21`, the GI50 in the experiment on BT-549 is 16.9 µM (inactive); in the experiment with PC-3, 13.6 µM (inactive); with MDA-MB-435, 6.18 µM (inactive); in the experiment on Hs-578T, 22.1 µM (inactive); in the experiment on MDA-N it was 6.81 µM (inactive).
Regarding `S=C(NCCCCCCNC(=S)Nc1c2ccccc2nc2ccccc12)Nc1c2ccccc2nc2ccccc12`, in the experiment with XF498, the GI50 is > 89.9 µM (inactive).
With `O=C(O)C1CCC(=O)N1S(=O)(=O)c1ccccc1` (centres undefined), the GI50 in the experiment on XF498 is > 100 µM (inactive).
As to `CO/N=C(\C)c1ccc(Nc2nc3ccccc3c3occc23)cc1`, the GI50 with BT-549 is 16.8 µM (inactive); in the experiment on PC-3, 16.2 µM (inactive); in the experiment with MDA-MB-435, 16.4 µM (inactive); in the experiment with Hs-578T, 12.5 µM (inactive); in the experiment on 786-0, 14.2 µM (inactive); in the experiment on MDA-N, 14.6 µM (inactive).
Take `CSCSCC(N)CO.Cc1[nH]c(=O)[nH]c(=O)c1/C=C/C(=O)O`: the GI50 with XF498 was > 625 µM (inactive).
Regarding `COc1ccccc1-c1cc(O)c2c(C)ccnc2n1`, the figures for the GI50 in the experiment on BT-549 and in the experiment on Hs-578T were 7.1 µM (inactive) and 11.5 µM (inactive), respectively.
With `O=c1oc2cc(O)ccc2c2oc3cc(O)ccc3c12` [COUMESTROL], in the experiment with XF498, the GI50 was > 19.8 µM (inactive).
